# Test results as given in ChEMBL document CHEMBL2203104, “Recent advances in antitubercular natural products” (Eur J Med Chem, 2012).
# Test system: not listed separately
# Assay: Selectivity index, ratio of IC50 for african green monkey Vero cells to MIC for multidrug-resistant Mycobacterium tuberculosis
# Assay type: functional
row,SMILES,Selectivity Index
1,COc1ccc(C(=O)OC2=C(C(C)C)C(=O)C3=C(C2=O)[C@@]2(C)CCCC(C)(C)[C@@H]2[C@H](O)[C@H]3OC(C)=O)cc1,6.6

# Test system: Mycobacterium tuberculosis
# Assay: Antimycobacterial activity against multidrug-resistant Mycobacterium tuberculosis
# Assay type: functional
row,SMILES,MIC [µg/mL]
1,CC(=O)O[C@H]1C2=C(C(=O)C(OC(=O)c3ccc(Cl)cc3)=C(C(C)C)C2=O)[C@@]2(C)CCCC(C)(C)[C@@H]2[C@@H]1O,0.78
2,CC(C)C1=C(O)C(=O)C2=C(C1=O)[C@H](O)[C@@H](O)[C@H]1C(C)(C)CCC[C@]21C,12.5
3,CC(=O)O[C@H]1C2=C(C(=O)C(O)=C(C(C)C)C2=O)[C@@]2(C)CCCC(C)(C)[C@@H]2[C@@H]1O,3.12
4,COc1ccc(C(=O)OC2=C(C(C)C)C(=O)C3=C(C2=O)[C@@]2(C)CCCC(C)(C)[C@@H]2[C@H](O)[C@H]3OC(C)=O)cc1,0.39
5,C=C(C)C(CC[C@@H](C)[C@H]1CC[C@@]2(C)[C@@H]3CC[C@H]4C(C)(C)[C@@H](O)CC[C@@]45C[C@@]35CC[C@]12C)OO (stereo not given in full),25
6,C[C@H](C/C=C/C(C)(C)OO)[C@H]1CC[C@@]2(C)[C@@H]3CC[C@H]4C(C)(C)[C@@H](O)CC[C@@]45C[C@@]35CC[C@]12C,12.5
7,CC(C)C1=C(O)C(=O)C2=C(C=C[C@H]3C(C)(C)CCC[C@]23C)C1=O,12.5
8,CC(C)C1=C(O)C(=O)C2=C(C1=O)[C@H](O)C[C@H]1C(C)(C)CCC[C@]21C [HORMINONE],12.5

# Test system: Mycobacterium tuberculosis
# Assay: Antimycobacterial activity against rifampicin-resistant Mycobacterium tuberculosis
# Assay type: functional
row,SMILES,MIC [µg/mL]
1,C/C=C(/NC(=O)c1csc(-c2csc(-c3ccc4c(n3)-c3csc(n3)C(C(C)(O)C(C)O)NC(=O)c3csc(n3)C(C(C)C)NC(=O)c3csc(n3)/C(=C/OC)NC(=O)C(C(C)O)NC(=O)c3csc-4n3)n2)n1)C(=O)OC (stereo not given) [NOCARDITHIOCIN],0.025
